Where two headings read alike, the source gives them in different places.
Tests used:
[1] = system: mobilization of bone marrow hematopoietic progenitors; design: method as in PMID 17452489; settings: human subjects; cited from earlier work
[2] = AMD070 PK study via SC injection: plasma, lung and liver concentration; assay type: in vivo, C57BL/6 mice; settings: SC 400 μg/mouse; for Kp: C57BL/6, read-out: Tissue AUC/Plasma AUC
Protocol: (§1) All preceding procedures were same as those for AMD070 PK studies via IP injections. AMD070 concentrations in mouse plasma were determined using protein precipitation extraction followed by UPLC-MS/MS analysis. Briefly, 100 μL aliquots of plasma were transferred to individual wells of an Isolute PPT+ (Biotage) array plate containing 300 μL of 0.1% formic acid (FA) in acetonitrile (ACN). […] The sample residue was then reconstituted into 200 μL of 0.1/5/95 FA/ACN/H2O (v/v/v) and analyzed using reverse phase chromatography (gradient elution) combined with multiple reaction monitoring acquisition (MRM). The mobile phases consisted of 0.1% FA in H2O and 0.1% FA in ACN. AMD070 was extracted from lung and liver tissue by homogenization under basic conditions followed by liquid-liquid extraction in tert-butyl methyl ether (TBME) and ethyl acetate respectively. In summary, 50 mg of lung or liver tissue pieces were cut, weighed, and transferred to homogenization tubes. 25 μL of deionized water for lung and 10 μL for liver were added to each tube, followed by the addition of zirconium (Zr) homogenization beads. The samples were homogenized for approximately 20 seconds in the BeadBeater, followed by 1 minute of centrifugation at room temperature at 13,520 rcf. 200 μL of 1 N NaOH was then transferred to each tube, followed by a second homogenization/centrifugation cycle as described above. […] The dried residue was reconstituted into 0.1/5/95 TFA/ACN/H2O and analyzed using reverse phase chromatography (gradient elution) combined with MRM acquisition in positive electrospray mode (ES+). The mobile phases consisted of 0.1% TFA in H2O and 0.1% TFA in ACN.

CXCR4 = system: CXCR4; design: method as in PMID 20297846; settings: cited from earlier work
[3] = system: leukocyte mobilization (blood cell counts); experiment: Hematology measurements after PO administration (leukocyte mobilization); assay type: in vivo, CD-1 mice
Protocol: At each endpoint, mice were euthanized with CO2 and blood collected via cardiac puncture. An aliquot was set aside at room temperature for hematology measurements with remaining blood processed for plasma for drug concentration determination. Lungs were collected and immediately frozen on dry ice and stored at -70°C until determination of drug concentration.

[4] = AMD070 PK study via PO: plasma and lung concentration; assay type: in vivo, CD-1 mice
Protocol: as §1, with “At each endpoint, mice” for “All preceding procedures”, “euthanized with CO2 and blood collected via cardiac puncture. An aliquot was set aside at room temperature” for “same as those”, “hematology measurements with remaining blood processed for plasma for drug concentration determination. Lungs were collected and immediately frozen on dry ice and stored at -70°C until determination of drug concentration.” for “AMD070 PK studies via IP injections.”

[5] = system: leukocyte mobilization (blood cell counts); experiment: Hematology measurements after IP administration (leukocyte mobilization); assay type: in vivo, C57BL/6 mice; settings: IP 400 μg/mouse
Protocol: At each endpoint, animals were euthanized with CO2 and blood collected via cardiac puncture. An aliquot was set aside at room temperature for hematology measurements with remaining blood processed for plasma for drug concentration determination. Lungs and livers were also collected and immediately frozen on dry ice and stored at -70°C until determination of drug concentration.

Compound: NCCCCN(Cc1nc2ccccc2[nH]1)[C@H]1CCCc2cccnc21 [AMD070]
- time of peak mobilization of bone marrow hematopoietic progenitors post dosing [1]: two to three
- Cmax ([2]; C57BL/6, 400 ug, Liver): 5760 ng/g
- Tmax ([2]; C57BL/6, 400 ug, Liver): 30 min
- Cmax ([2]; C57BL/6, 400 ug, Lung): 5650 ng/g
- Tmax ([2]; C57BL/6, 400 ug, Lung): 60 min
- Cmax ([2]; C57BL/6, 400 ug, Plasma): 700 ng/mL
- Tmax ([2]; C57BL/6, 400 ug, Plasma): 30 min
- AUC ([2]; C57BL/6, 400 ug, Plasma, read-out: AUC (all time points)): 970 ng·h/mL
- Kp ([2]; Liver): 79.7
- Kp ([2]; Lung): 83.3
- protein binding adjusted effective concentration (EC90) (CXCR4; 90% effectiveness): 0.044 µg/mL
- IC50 (CXCR4): 13 nM
- Tmax of WBC increase ([3]; PO 200 μg/mouse): 180 min
- WBC counts ([3]; PO 200 μg/mouse): significant, transient increase
- WBC counts ([3]; PO 400 μg/mouse): increased and remained elevated for the full 24 hours
- eosinophils (WBC differential) ([3]; PO 200 or 400 μg/mouse): no increases
- lymphocytes (WBC differential) ([3]; PO 200 or 400 μg/mouse): increased
- monocytes (WBC differential) ([3]; PO 200 or 400 μg/mouse): no increases
- neutrophils (WBC differential) ([3]; PO 200 or 400 μg/mouse): no increases
- platelet counts ([3]; PO 200 or 400 μg/mouse): did not change
- red blood cell (RBC) counts ([3]; PO 200 or 400 μg/mouse): did not change
- drug levels in the lungs ([4]; PO 200 μg/animal): detectable but not quantifiable
- lung Cmax ([4]; PO 400 μg/animal): 267 ng/g
- time of lung Cmax after PO ([4]; PO 400 μg/animal): 6 h
- plasma concentrations of drug ([4]; PO 200 or 400 μg/animal, data not shown): very low
- time lung concentration above IC50 and EC90 ([4]; of the 24 hours after dosing, PO 400 μg/animal, WinNonlin analysis): at least 21 hours
- RBC levels [5]: unaffected
- Tmax of WBC increase [5]: 180 min
- WBC counts [5]: significant but transient increase
- lymphocytes (WBC differential) [5]: increased
- neutrophils (WBC differential) [5]: increased
- platelet levels [5]: unaffected
